Measurements taken from publication PMC4613257, “Ile-1781-Leu and Asp-2078-Gly Mutations in ACCase Gene, Endow Cross-resistance to APP, CHD, and PPZ in Phalaris minor from Mexico” (International Journal of Molecular Sciences, 2015).
Like-named read-outs stand apart in the source and are kept apart here.

Target: ACCase
Settings: read-out: I50, R biotype, both substitutions found, zygosity not given, stated gain, pH 8.3, 34 °C, 1.5 mM ATP, 5 mM MgCl2, 15 mM NaH14CO3, 5 mM acetyl-CoA
Text: ATP-dependent NaH14CO3 incorporation into acid-stable product on ACCase

Row | SMILES | IC50 [µM] | other results
1 | CC(Oc1ccc(Oc2nc3ccc(Cl)cc3o2)cc1)C(=O)O (stereo not drawn) [Fenoxaprop acid] |  | IC50 (table prints the ethyl ester, methods state the acid): 7.85 µM
2 | C[C@@H](Oc1ccc(Oc2ccc(C#N)cc2F)cc1)C(=O)O [cyhalofop acid] |  | IC50 (table prints the butyl ester, methods list the acid): 77.7 µM
3 | CC(Oc1ccc(Oc2ccc(Cl)cc2Cl)cc1)C(=O)O (stereo not drawn) [diclofop acid] |  | IC50 (table prints the methyl ester, methods list the acid): 7.14 µM
4 | CCc1cc(C)cc(CC)c1-c1c(OC(=O)C(C)(C)C)n2n(c1=O)CCOCC2 [pinoxaden] | 9.13 | 
5 | CCCC(=NOCC)C1=C(O)CC(CC(C)SCC)CC1=O (stereo not drawn) [sethoxydim] | 1500 | 
6 | CCON=C(CC)C1=C(O)CC(c2c(C)cc(C)cc2C)CC1=O (stereo not drawn) [tralkoxydim] | 8.81 | 
